Results as given in ChEMBL document CHEMBL1127971, “Novel conformationally constrained HIV-1 protease inhibitors: rational design, enzyme inhibition, and X-ray structure of an enzyme-inhibtor complex” (Bioorg Med Chem Lett, 1994).

Target: Human immunodeficiency virus type 1 protease (Human immunodeficiency virus 1, UniProt Q72874)
Test: Inhibition of human immunodeficiency virus type 1 (HIV-1) protease

Structure (SMILES) | IC50 [µM]
O=C(N[C@@H](Cc1ccccc1)C1(O)CCN([C@@H](Cc2ccccc2)C(=O)N[C@H]2c3ccccc3C[C@H]2O)CC1)O[C@H]1CCOC1 | 29.7
CC(C)(C)OC(=O)N[C@@H](Cc1ccccc1)[C@]1(O)CCN([C@@H](Cc2ccccc2)C(=O)N[C@H]2c3ccccc3C[C@H]2O)C1 | 0.6
CC(C)C[C@@H](C(=O)NC(C)(C)C)N1CCC(O)([C@H](Cc2ccccc2)NC(=O)[C@@H](NC(=O)OCc2ccccc2)C(C)C)CC1 | 26.7
CC(C)C[C@@H](C(=O)NC(C)(C)C)N1CCC[C@@](O)([C@H](Cc2ccccc2)NC(=O)OC(C)(C)C)C1 | > 100
CC(C)(C)OC(=O)N[C@@H](Cc1ccccc1)C1(O)CCN([C@@H](Cc2ccccc2)C(=O)N[C@H]2c3ccccc3C[C@H]2O)CC1 | 1.46
CC(C)(C)NC(=O)[C@H](CC1CCCCC1)N1CCC[C@](O)([C@H](Cc2ccccc2)NC(=O)OC(C)(C)C)C1 | > 100
CC(C)(C)OC(=O)N[C@@H](Cc1ccccc1)[C@]1(O)CCCN([C@@H](Cc2ccccc2)C(=O)N[C@H]2c3ccccc3C[C@H]2O)C1 | > 100
CC(C)[C@H](NC(=O)OCc1ccccc1)C(=O)N[C@@H](Cc1ccccc1)[C@]1(O)CCN([C@@H](Cc2ccccc2)C(=O)N[C@H]2c3ccccc3C[C@H]2O)C1 | 0.22
CC(C)[C@H](NC(=O)OCc1ccccc1)C(=O)N[C@@H](Cc1ccccc1)C1(O)CCN(CCc2ccccc2)CC1 | 38.7
CC(C)(C)OC(=O)N[C@@H](Cc1ccccc1)[C@@]1(O)CCN([C@@H](Cc2ccccc2)C(=O)N[C@H]2c3ccccc3C[C@H]2O)C1 | 6
CC(C)(C)NC(=O)[C@H](CC1CCCCC1)N1CCC(O)([C@H](Cc2ccccc2)NC(=O)OC(C)(C)C)CC1 | > 100
CC(C)(C)NC(=O)[C@H](CC1CCCCC1)N1CC[C@@](O)([C@H](Cc2ccccc2)NC(=O)OC(C)(C)C)C1 | 37
